According to US12448388B2, “PRMT5 inhibitors and uses thereof” (Gilead Sciences, Inc., priority 2023, dated 2025):

test system: HCT116 MTAP-deleted cell lines; assay: Cell viability assay (CellTiter-Glo, 7 days), HCT116 MTAP-deleted; format: cell-based; conditions: Homo sapiens, HCT-116; cell viability, HCT116 MTAP-deleted; class symbols; read-out: CC50
In short: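 Luminescent ATP readout (CellTiter-Glo) after 7 days of continuous compound exposure gives the CC50 value. Cells were plated onto pre-dispensed DMSO dilution series of the PRMT5 inhibitors and kept at 37 °C in 5% CO2.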

**Q.** For `CN(C(=O)c1cc2c(cc1F)nc(N)c1cncn12)C1CCc2cc(C(F)(F)F)ccc21` (stereo not shown) [Ff-309, 4-amino-7-fluoro-N-methyl-N-(5-(trifluoromethyl)-2,3-dihydro-1H-inden-1-yl)imidazo[1,5-a]quinoxaline-8-carboxamide], which CC50 is on record?
**A.** The CC50 was less than 100 nM.

**Q.** How did the CC50 turn out when `Nc1nc2cc(F)c(C(=O)N(Cc3ccc(C(F)(F)F)cn3)c3cnn(C(F)F)c3)cc2n2cncc12` [Ff-311, 4-amino-N-(1-(difluoromethyl)-1H-pyrazol-4-yl)-7-fluoro-N-((5-(trifluoromethyl)pyridin-2-yl)methyl)imidazo[1,5-a]quinoxaline-8-carboxamide] was run?
**A.** The CC50 was less than 100 nM.

**Q.** Which CC50 does the source give for `CN(C(=O)c1cc2c(cc1F)nc(N)c1cncn12)[C@@H]1c2ccc(Br)cc2[C@@H]2C[C@H]12` [Ff-312, 4-amino-N-((1aR,6S,6aS)-3-bromo-1,1a,6,6a-tetrahydrocyclopropa[a]inden-6-yl)-7-fluoro-N-methylimidazo[1,5-a]quinoxaline-8-carboxamide] here?
**A.** Its CC50 is 100 to 1000 nM.

**Q.** For `CN(C(=O)c1cc2c(cc1F)nc(N)c1cncn12)[C@H]1c2ccc(Br)cc2[C@H]2C[C@H]21` [Ff-313, 4-amino-N-((1aS,6R,6aR)-3-bromo-1,1a,6,6a-tetrahydrocyclopropa[a]inden-6-yl)-7-fluoro-N-methylimidazo[1,5-a]quinoxaline-8-carboxamide], which CC50 is on record?
**A.** Its CC50 is 100 to 1000 nM.

**Q.** `Nc1nc2cc(F)c(C(=O)N(Cc3ccc(C(F)(F)F)cn3)c3cnn(-c4ccccc4)c3)cc2n2cncc12` [Ff-315, 4-amino-7-fluoro-N-(1-phenyl-1H-pyrazol-4-yl)-N-((5-(trifluoromethyl)pyridin-2-yl)methyl)imidazo[1,5-a]quinoxaline-8-carboxamide] was tested. Which CC50 did it give?
**A.** The CC50 was less than 100 nM.

**Q.** For `Cc1ncn2c1c(N)nc1cc(F)c(C(=O)N(C)[C@@H]3CCc4nc(C(F)(F)F)ccc43)cc12` [Ff-316, (R)-4-amino-7-fluoro-N,3-dimethyl-N-(2-(trifluoromethyl)-6,7-dihydro-5H-cyclopenta[b]pyridin-5-yl)imidazo[1,5-a]quinoxaline-8-carboxamide], which CC50 is on record?
**A.** Its CC50 is less than 100 nM.

**Q.** How did the CC50 turn out when `Cc1ncc2c(N)nc3cc(F)c(C(=O)N(C)[C@@H]4CCc5nc(C(F)(F)F)ccc54)cc3n12` [Ff-317, (R)-4-amino-7-fluoro-N,1-dimethyl-N-(2-(trifluoromethyl)-6,7-dihydro-5H-cyclopenta[b]pyridin-5-yl)imidazo[1,5-a]quinoxaline-8-carboxamide] was run?
**A.** The CC50 was 100 to 1000 nM.

**Q.** With `CN(C(=O)c1cc2c(cc1F)nc(N)c1cncn12)[C@@H]1CCc2nc(C(F)(F)F)ccc21` [Ff-318, (R)-4-amino-7-fluoro-N-methyl-N-(2-(trifluoromethyl)-6,7-dihydro-5H-cyclopenta[b]pyridin-5-yl)imidazo[1,5-a]quinoxaline-8-carboxamide] as the molecule, how does the CC50 read?
**A.** Its CC50 is less than 100 nM.

**Q.** How did the CC50 turn out when `Nc1nc2cc(F)c(C(=O)N3CCO[C@@H]4Cc5cc(C(F)(F)F)c(F)cc5[C@@H]43)cc2n2cncc12` [Ff-326, (4-amino-7-fluoroimidazo[1,5-a]quinoxalin-8-yl)((4aS,9aR)-6-fluoro-7-(trifluoromethyl)-2,3,9,9a-tetrahydroindeno[2,1-b][1,4]oxazin-4(4aH)-yl)methanone] was run?
**A.** The CC50 was less than 100 nM.

**Q.** With `CC1CN(C(=O)c2cc3c(cc2F)nc(N)c2cncn23)[C@H]2c3cc(F)ccc3C[C@H]2O1` (stereo partly drawn) [Ff-327, (4-amino-7-fluoroimidazo[1,5-a]quinoxalin-8-yl)((4aS,9aR)-6-fluoro-2-methyl-2,3,9,9a-tetrahydroindeno[2,1-b][1,4]oxazin-4(4aH)-yl)methanone] as the molecule, how does the CC50 read?
**A.** Its CC50 is less than 100 nM.

**Q.** How did the CC50 turn out when `CN(C(=O)c1cc2c(cc1F)nc(N)c1cncn12)[C@H]1c2ccc(Br)cc2[C@@H]2C[C@@H]21` [Ff-330, 4-amino-N-((1aR,6R,6aS)-3-bromo-1,1a,6,6a-tetrahydrocyclopropa[a]inden-6-yl)-7-fluoro-N-methylimidazo[1,5-a]quinoxaline-8-carboxamide] was run?
**A.** The CC50 was 100 to 1000 nM.

**Q.** Which CC50 does the source give for `Nc1nc2cnc(C(=O)N3CCC[C@@H]4Oc5c(ccc(OC(F)(F)F)c5F)[C@@H]43)cc2n2cncc12` [Ff-336, (4-aminoimidazo[1,5-a]pyrido[3,4-e]pyrazin-8-yl)((4aS,9bS)-6-fluoro-7-(trifluoromethoxy)-3,4,4a,9b-tetrahydrobenzofuro[3,2-b]pyridin-1(2H)-yl)methanone] here?
**A.** The CC50 was less than 100 nM.

**Q.** How did the CC50 turn out when `CN(C(=O)c1cc2c(cc1F)nc(N)c1cncn12)[C@@H]1COc2cc(C(C)(F)F)ccc21` [Ff-337, (S)-4-amino-N-(6-(1,1-difluoroethyl)-2,3-dihydrobenzofuran-3-yl)-7-fluoro-N-methylimidazo[1,5-a]quinoxaline-8-carboxamide] was run?
**A.** The CC50 was less than 100 nM.

**Q.** `CN(C(=O)c1cc2c(cn1)nc(N)c1cncn12)[C@@H]1COc2cc(C(F)(F)F)ccc21` [Ff-342, (S)-4-amino-N-methyl-N-(6-(trifluoromethyl)-2,3-dihydrobenzofuran-3-yl)imidazo[1,5-a]pyrido[3,4-e]pyrazine-8-carboxamide] was tested. Which CC50 did it give?
**A.** Its CC50 is less than 100 nM.

**Q.** Which CC50 does the source give for `Nc1nc2cc(F)c(C(=O)N3CCC[C@@H]4Oc5c(ccc(OC(F)(F)F)c5F)[C@@H]43)cc2n2cncc12` [Ff-343, (4-amino-7-fluoroimidazo[1,5-a]quinoxalin-8-yl)((4aS,9bS)-6-fluoro-7-(trifluoromethoxy)-3,4,4a,9b-tetrahydrobenzofuro[3,2-b]pyridin-1(2H)-yl)methanone] here?
**A.** The CC50 was less than 100 nM.

**Q.** Which CC50 does the source give for `Cc1ncc2c(N)nc3cnc(C(=O)N4CCC[C@@H]5Oc6c(ccc(OC(F)(F)F)c6F)[C@@H]54)cc3n12` [Ff-347, (4-amino-1-methylimidazo[1,5-a]pyrido[3,4-e]pyrazin-8-yl)((4aS,9bS)-6-fluoro-7-(trifluoromethoxy)-3,4,4a,9b-tetrahydrobenzofuro[3,2-b]pyridin-1(2H)-yl)methanone] here?
**A.** Its CC50 is less than 100 nM.

**Q.** With `C[C@@H]1C[C@@H]2Oc3c(ccc(C(F)(F)F)c3F)[C@@H]2N(C(=O)c2cc3c(cn2)nc(N)c2cncn23)C1` [Ff-348, (4-aminoimidazo[1,5-a]pyrido[3,4-e]pyrazin-8-yl)((3R,4aS,9bS)-6-fluoro-3-methyl-7-(trifluoromethyl)-3,4,4a,9b-tetrahydrobenzofuro[3,2-b]pyridin-1(2H)-yl)methanone] as the molecule, how does the CC50 read?
**A.** The CC50 was less than 100 nM.

**Q.** Which CC50 does the source give for `N#Cc1cc2nc(N)c3cncn3c2cc1C(=O)N1CCC[C@@H]2Oc3cc(OC(F)(F)F)ccc3[C@@H]21` [Ff-349, 4-amino-8-((4aS,9bS)-7-(trifluoromethoxy)-1,2,3,4,4a,9b-hexahydrobenzofuro[3,2-b]pyridine-1-carbonyl)imidazo[1,5-a]quinoxaline-7-carbonitrile] here?
**A.** The CC50 was less than 100 nM.

**Q.** For `Cc1ncc2c(N)nc3ccc(C(=O)N(C)[C@@H]4COc5cc(C(F)(F)F)c(F)cc54)cc3n12` [Ff-352, (S)-4-amino-N-(5-fluoro-6-(trifluoromethyl)-2,3-dihydrobenzofuran-3-yl)-N,1-dimethylimidazo[1,5-a]quinoxaline-8-carboxamide], which CC50 is on record?
**A.** The CC50 was less than 100 nM.

**Q.** `CN(C(=O)c1ccc2nc(N)c3cncn3c2c1)[C@@H]1COc2cc(C(F)(F)F)c(F)cc21` [Ff-353, (S)-4-amino-N-(5-fluoro-6-(trifluoromethyl)-2,3-dihydrobenzofuran-3-yl)-N-methylimidazo[1,5-a]quinoxaline-8-carboxamide] was tested. Which CC50 did it give?
**A.** Its CC50 is less than 100 nM.

**Q.** With `CN(C(=O)c1cc2c(cc1F)nc(N)c1cncn12)[C@@H]1COc2c1ccc(C(F)(F)F)c2F` [Ff-354, (S)-4-amino-7-fluoro-N-(7-fluoro-6-(trifluoromethyl)-2,3-dihydrobenzofuran-3-yl)-N-methylimidazo[1,5-a]quinoxaline-8-carboxamide] as the molecule, how does the CC50 read?
**A.** Its CC50 is less than 100 nM.

**Q.** With `Cc1ncc2c(N)nc3ccc(C(=O)N(C)[C@@H]4COc5c4ccc(C(F)(F)F)c5F)cc3n12` [Ff-355, (S)-4-amino-N-(7-fluoro-6-(trifluoromethyl)-2,3-dihydrobenzofuran-3-yl)-N,1-dimethylimidazo[1,5-a]quinoxaline-8-carboxamide] as the molecule, how does the CC50 read?
**A.** Its CC50 is 100 to 1000 nM.

**Q.** For `CN(C(=O)c1ccc2nc(N)c3cncn3c2c1)[C@@H]1COc2c1ccc(C(F)(F)F)c2F` [Ff-356, (S)-4-amino-N-(7-fluoro-6-(trifluoromethyl)-2,3-dihydrobenzofuran-3-yl)-N-methylimidazo[1,5-a]quinoxaline-8-carboxamide], which CC50 is on record?
**A.** Its CC50 is less than 100 nM.

**Q.** Which CC50 does the source give for `Nc1nc2cc(F)c(C(=O)N3CCC[C@@H]4OCc5nc(C(F)(F)F)ccc5[C@@H]43)cc2n2cncc12` [Ff-357, (4-amino-7-fluoroimidazo[1,5-a]quinoxalin-8-yl)((4aS,10bS)-8-(trifluoromethyl)-2,3,4,4a,6,10b-hexahydro-1H-pyrano[3,2-b:5,4-b′]dipyridin-1-yl)methanone] here?
**A.** Its CC50 is less than 100 nM.

**Q.** `Cc1ncn2c1c(N)nc1cc(F)c(C(=O)N3CCC[C@@H]4OCc5nc(C(F)(F)F)ccc5[C@@H]43)cc12` [Ff-358, (4-amino-7-fluoro-3-methylimidazo[1,5-a]quinoxalin-8-yl)((4aS,10bS)-8-(trifluoromethyl)-2,3,4,4a,6,10b-hexahydro-1H-pyrano[3,2-b:5,4-b′]dipyridin-1-yl)methanone] was tested. Which CC50 did it give?
**A.** The CC50 was less than 100 nM.

**Q.** With `Cc1ncc2c(N)nc3cc(F)c(C(=O)N4CCC[C@@H]5OCc6nc(C(F)(F)F)ccc6[C@@H]54)cc3n12` [Ff-359, (4-amino-7-fluoro-1-methylimidazo[1,5-a]quinoxalin-8-yl)((4aS,10bS)-8-(trifluoromethyl)-2,3,4,4a,6,10b-hexahydro-1H-pyrano[3,2-b:5,4-b′]dipyridin-1-yl)methanone] as the molecule, how does the CC50 read?
**A.** Its CC50 is less than 100 nM.

**Q.** With `Cc1ncn2c1c(N)nc1cc(Cl)c(C(=O)N3CCC[C@@H]4OCc5nc(C(F)(F)F)ccc5[C@@H]43)cc12` [Ff-360, (4-amino-7-chloro-3-methylimidazo[1,5-a]quinoxalin-8-yl)((4aS,10bS)-8-(trifluoromethyl)-2,3,4,4a,6,10b-hexahydro-1H-pyrano[3,2-b:5,4-b′]dipyridin-1-yl)methanone] as the molecule, how does the CC50 read?
**A.** Its CC50 is less than 100 nM.

**Q.** How did the CC50 turn out when `Nc1nc2cc(F)c(C(=O)N3CCC[C@@H]4Oc5nc(C(F)(F)F)ccc5[C@@H]43)cc2n2cncc12` [Ff-361, (4-amino-7-fluoroimidazo[1,5-a]quinoxalin-8-yl)((4aS,9bS)-7-(trifluoromethyl)-3,4,4a,9b-tetrahydrofuro[2,3-b:4,5-b′]dipyridin-1(2H)-yl)methanone] was run?
**A.** The CC50 was less than 100 nM.
